Experimental data taken from EP3300715A1, “USE OF DIALKYLCARBONATES OF BRANCHED ALCOHOLS AS DISPERSION AGET” (BASF SE, priority 2016, dated 2018).

Assay: Pigment dispersion test: medium added dropwise to 10 g pigment until a paste forms; maximum % pigment in the medium
Type: physicochemical
Details: medium added dropwise to 10 g pigment (Eisenoxid, Titanoxid) until paste, no excess medium; compared with other media; shown in figure
Description: Es hat sich überraschend gezeigt, dass die erfindungsgemäß verwendeten Dialkylcarbonate gegenüber anderen Medien hervorragende Dispersionen mit Feststoffen bilden.
Das Experiment wurde wie folgt durchgeführt. Das Medium wurde tropfenweise zu 10 g Pigment (grau = Eisenoxid, dunkelgrau = Titanoxid), bis sich eine Paste gebildet hatte (kein Medium im Überschuss). Die folgende Rechnung entspricht der maximalen Menge Pigment in prozent, die in das jeweilige Medium gegeben werden kann: % Pigment = m(Pigment)/m(Pigment) + m(Medium) × 100 [formula]

- Pigmentkonzentrationen (% Pigment, maximale Menge Pigment im Medium): höchsten Pigmentkonzentrationen
SMILES: CCCCCC(CCC)COC(=O)OCC(CCC)CCCCC (stereo not shown) [Di-(2-Propyl-1-heptyl)carbonat]
